Data as given in paper PMC10999543, “Identification of kinase modulators as host-directed therapeutics against intracellular methicillin-resistant Staphylococcus aureus” (Frontiers in Cellular and Infection Microbiology, 2024).
Where two headings read alike, the source gives them in different places.

Experiments:
intracellular MRSA = type: cell-based, Staphylococcus aureus; details: for z-scoreMRSA+ mean: mean of 3 replicates; for z-scoreMRSA+ rep 1 / %GFP+ rep 1: replicate 1; for z-scoreMRSA+ rep 2 / %GFP+ rep 2: replicate 2; for z-scoreMRSA+ rep 3 / %GFP+ rep 3: replicate 3
Procedure: (§1) The cells were resuspended in cell culture medium without antibiotics, seeded with 10,000 cells/well into Costar flat-bottom 96-well plates (Corning, Amsterdam, the Netherlands), and were incubated overnight at 37°C/5% CO2. The next day, the bacteria were centrifuged at ≥1800 g for 15 min and resuspended in cold PBS + 5 mM ethylenediaminetetraacetic acid (EDTA). The number of CFUs present in the bacterial suspension was estimated from the optical density at 600 nm (OD600) by assuming 8x10^8 CFUs to be present in a bacterial suspension with OD600 = 1, based on prior titrations. The bacterial suspension was diluted in cell culture medium without antibiotics and added to the cells. Accuracy of the multiplicity of infection (MOI) was validated by plating serial dilutions of the MRSA inoculums on Difco TS agar plates (BD Biosciences). The calculated mean MOI throughout all experiments was 6.8 ± 4.6 (mean ± SD). Infected cells were centrifuged for 3 min at 150 g and incubated for 1 hour at 37°C/5% CO2. Next, the cells were incubated with fresh cell culture medium supplemented with 30 µg/ml gentamicin sulphate (Lonza BioWhittaker, Basel, Switzerland) for 15 min at 37°C/5% CO2 to kill residual extracellular bacteria. Infected cells were incubated overnight at 37°C/5% CO2 in cell culture medium in the presence of kinase inhibitors and 5 µg/ml gentamicin sulphate-containing medium to prevent the growth of extracellular bacteria. The solvent of the compounds, DMSO, was used at equal % v/v as a negative control. For the screen, each compound was tested in triplicate, on separate cell culture plates, resulting in triplicate values for each kinase inhibitor.
(§2) HeLa cells were harvested by trypsinization and fixed with 1% paraformaldehyde. Samples were measured on a FACSLyric with HTS extension (BD Biosciences). Flow cytometry data were analysed using FlowJo version 10 (TreeStar, Ashland, OR, USA). HeLa cells positive for GFP were gated to calculate the percentage of MRSA-infected cells. The cell count was used as surrogate readout of cell viability.
To identify potential “hit” compounds, the flow cytometry data were used to calculate standard z-scores using z = (x-μ)/σ – zneg, where x is total event count or the percent of GFP-positive cells from a single well, μ is the mean from wells of the plate, σ is the standard deviation of the plate and zneg is the mean z-score of the negative control of the plate (i.e., DMSO) ([Korbee et al., 2018]). To minimize the possibility that the presence of extreme values on a plate affected the z-scores, raw values that deviated two-fold from the negative controls were excluded when calculating plate means and standard deviations as used in the aforementioned formula. Compounds were considered a “hit” when z-scoreMRSA+ ≤ -2 and z-scoreHeLa ≥ -3 for cell count. In cases where compounds were screened twice, the average values were used to select hit compounds.

HeLa cells = assay: Compound screen by flow cytometry: HeLa cell count as surrogate readout of cell viability (z-scoreHeLa); type: cell-based, human
Procedure: as §1, §2
To minimize the possibility that the presence of extreme values on a plate affected the z-scores, raw values that deviated two-fold from the negative controls were excluded when calculating plate means and standard deviations as used in the aforementioned formula. Compounds were considered a “hit” when z-scoreMRSA+ ≤ -2 and z-scoreHeLa ≥ -3 for cell count. In cases where compounds were screened twice, the average values were used to select hit compounds.

[1] = PKIS compound screen, Yes/No call
[2] = PKIS compound screen, Yes/No call (effect without cell death)
[3] = PKIS compounds raw data, MRSA-infected HeLa cells
[4] = PKIS compound screen, mean of 3 replicates
[5] = PKIS compound screen, replicate 1
[6] = PKIS compound screen, replicate 2
[7] = PKIS compound screen, replicate 3
[8] = PKIS compounds raw data, replicate 1, HeLa cell count
[9] = PKIS compounds raw data, replicate 2, HeLa cell count
[10] = PKIS compounds raw data, replicate 3, HeLa cell count
[11] = Yes/No: effect without cell death
[12] = compound screen, MRSA-infected HeLa cells
[13] = compound screen, HeLa cell count, mean of 3 replicates
[14] = compound screen, HeLa cell count, replicate 1
[15] = compound screen, HeLa cell count, replicate 2
[16] = compound screen, HeLa cell count, replicate 3
[17] = PKIS compound screen raw data, MRSA-infected HeLa cells
[18] = PKIS compound screen, MRSA-infected HeLa cells
[19] = PKIS compound screen, Yes/No call on z-scoreMRSA+
[20] = PKIS compound screen raw data, HeLa cell count, replicate 1
[21] = PKIS compound screen raw data, HeLa cell count, replicate 2
[22] = PKIS compound screen raw data, HeLa cell count, replicate 3
[23] = PKIS compound screen, HeLa cell count, mean of 3 replicates
[24] = PKIS compound screen, HeLa cell count, replicate 1
[25] = PKIS compound screen, HeLa cell count, replicate 2
[26] = PKIS compound screen, HeLa cell count, replicate 3
[27] = PKIS compound screen, Yes/No call on z-scoreHeLa

Compound | hit (intracellular MRSA; [2]) | %GFP+ rep 1 (intracellular MRSA; [3]) [%] | %GFP+ rep 2 (intracellular MRSA; [3]) [%] | %GFP+ rep 3 (intracellular MRSA; [3]) [%] | cell count rep 1 (HeLa cells; [8]) | cell count rep 2 (HeLa cells; [9]) | cell count rep 3 (HeLa cells; [10]) | %GFP+ rep 1 (intracellular MRSA; [17]) [%] | %GFP+ rep 2 (intracellular MRSA; [17]) [%] | %GFP+ rep 3 (intracellular MRSA; [17]) [%] | z-scoreMRSA+ mean (intracellular MRSA; [18]) | z-scoreMRSA+ rep 1 (intracellular MRSA; [18]) | z-scoreMRSA+ rep 2 (intracellular MRSA; [18]) | z-scoreMRSA+ rep 3 (intracellular MRSA; [18]) | effect (intracellular MRSA; [19]) | also measured
COc1ccc2ncnc(Nc3ccc(OCc4ccccc4)cc3)c2c1 [GI261520A] | No | 11.8 | 13.4 | 11.4 | 6115 | 6030 | 12782 | – | – | – | – | – | – | – | – | effect (intracellular MRSA; [1]): No; z-scoreMRSA+ mean (intracellular MRSA; PKIS compound screen): -0.60; z-scoreMRSA+ rep 1 (intracellular MRSA; PKIS compound screen): -0.44; z-scoreMRSA+ rep 2 (intracellular MRSA; PKIS compound screen): -0.0319; z-scoreMRSA+ rep 3 (intracellular MRSA; PKIS compound screen): -1.33; cell death (HeLa cells; [1]): No; z-scoreHeLa mean (HeLa cells; [4]): 1.78; z-scoreHeLa rep 1 (HeLa cells; [5]): 1.21; z-scoreHeLa rep 2 (HeLa cells; [6]): 1.33; z-scoreHeLa rep 3 (HeLa cells; [7]): 2.78
Oc1ccc2ncnc(Nc3ccc(OCc4ccccc4)cc3)c2c1 [GI262866A] | – | 22.5 | 22.3 | 21.5 | 5744 | 4904 | 6919 | – | – | – | – | – | – | – | – | effect (intracellular MRSA; Yes/No call from z-scoreMRSA+): No; hit (intracellular MRSA; [11]): No; z-scoreMRSA+ mean (intracellular MRSA; [12]): -0.31; z-scoreMRSA+ rep 1 (intracellular MRSA; [12]): -0.65; z-scoreMRSA+ rep 2 (intracellular MRSA; [12]): -0.0758; z-scoreMRSA+ rep 3 (intracellular MRSA; [12]): -0.21; cell death (HeLa cells; Yes/No call from z-scoreHeLa): No; z-scoreHeLa mean (HeLa cells; [13]): 0.84; z-scoreHeLa rep 1 (HeLa cells; [14]): 1.00; z-scoreHeLa rep 2 (HeLa cells; [15]): 0.46; z-scoreHeLa rep 3 (HeLa cells; [16]): 1.06
c1ccc(Cc2nc3ccc(Nc4ncnc5ccccc45)cc3[nH]2)cc1 [GR269666A] | No | 13.4 | 15.8 | 13.5 | 4886 | 4795 | 7830 | – | – | – | – | – | – | – | – | effect (intracellular MRSA; [1]): No; z-scoreMRSA+ mean (intracellular MRSA; PKIS compound screen): 0.046; z-scoreMRSA+ rep 1 (intracellular MRSA; PKIS compound screen): 0.07; z-scoreMRSA+ rep 2 (intracellular MRSA; PKIS compound screen): 0.77; z-scoreMRSA+ rep 3 (intracellular MRSA; PKIS compound screen): -0.71; cell death (HeLa cells; [1]): No; z-scoreHeLa mean (HeLa cells; [4]): 0.30; z-scoreHeLa rep 1 (HeLa cells; [5]): 0.10; z-scoreHeLa rep 2 (HeLa cells; [6]): 0.40; z-scoreHeLa rep 3 (HeLa cells; [7]): 0.42
Cc1cnc(N)c(/C=C/c2cncc(C(=O)NCCc3ccc(Cl)cc3Cl)c2)c1 [GSK190937A] | No | – | – | – | – | – | – | 17.3 | 19.0 | 19.5 | -0.04 | -0.18 | 0.14 | -0.09 | No | –
CCNC(=O)O[C@H]1CN[C@H](C#Cc2cc3ncnc(Nc4ccc(OCc5cccc(F)c5)c(Cl)c4)c3s2)C1 [GSK192082A] | – | 6.9 | 7.5 | 8.8 | 3041 | 2947 | 5819 | – | – | – | – | – | – | – | – | effect (intracellular MRSA; Yes/No call from z-scoreMRSA+): Yes; hit (intracellular MRSA; [11]): Yes; z-scoreMRSA+ mean (intracellular MRSA; [12]): -2.04; z-scoreMRSA+ rep 1 (intracellular MRSA; [12]): -2.01; z-scoreMRSA+ rep 2 (intracellular MRSA; [12]): -2.02; z-scoreMRSA+ rep 3 (intracellular MRSA; [12]): -2.09; cell death (HeLa cells; Yes/No call from z-scoreHeLa): No; z-scoreHeLa mean (HeLa cells; [13]): -1.04; z-scoreHeLa rep 1 (HeLa cells; [14]): -1.57; z-scoreHeLa rep 2 (HeLa cells; [15]): -1.00; z-scoreHeLa rep 3 (HeLa cells; [16]): -0.55
O=C(O[C@H]1CN[C@H](C#Cc2cc3ncnc(Nc4ccc5c(cnn5Cc5ccccc5)c4)c3s2)C1)N1CCOCC1 [GSK200398A] | No | – | – | – | – | – | – | 12.7 | 13.5 | 14.0 | -1.64 | -1.64 | -1.51 | -1.76 | No | cell count rep 1 (HeLa cells; [20]): 22424; cell count rep 2 (HeLa cells; [21]): 29797; cell count rep 3 (HeLa cells; [22]): 30147; z-scoreHeLa mean (HeLa cells; [23]): -0.74; z-scoreHeLa rep 1 (HeLa cells; [24]): 0.35; z-scoreHeLa rep 2 (HeLa cells; [25]): -0.93; z-scoreHeLa rep 3 (HeLa cells; [26]): -1.65; cell death (HeLa cells; [27]): No
COc1cc2c(Nc3cccc(NC(=O)c4ccccc4)c3)ncnc2cc1OCCCN1CCOCC1 [GSK223810A] | No | – | – | – | – | – | – | 19.8 | 21.2 | 22.6 | 0.38 | 0.27 | 0.49 | 0.37 | No | cell count rep 1 (HeLa cells; [20]): 28720; cell count rep 2 (HeLa cells; [21]): 24881; cell count rep 3 (HeLa cells; [22]): 20680; z-scoreHeLa mean (HeLa cells; [23]): 0.00813; z-scoreHeLa rep 1 (HeLa cells; [24]): -0.25; z-scoreHeLa rep 2 (HeLa cells; [25]): -0.07; z-scoreHeLa rep 3 (HeLa cells; [26]): 0.34; cell death (HeLa cells; [27]): No
Fc1ccc(-c2ncn(C3CCNCC3)c2-c2ccnc(Oc3cccc(F)c3)n2)cc1 [SB-251505] | No | – | – | – | – | – | – | 15.0 | 15.3 | 16.6 | -0.95 | -0.91 | -0.97 | -0.97 | No | –
Fc1ccc(-c2ncn(C3CCNCC3)c2-c2ccnc(Oc3cccc(C(F)(F)F)c3)n2)cc1 [SB-253226] | No | – | – | – | – | – | – | 14.0 | 15.8 | 16.0 | -1.07 | -1.22 | -0.82 | -1.15 | No | –
Fc1ccc(-c2ncn(C3CCNCC3)c2-c2ccnc(Oc3ccc(Cl)cc3)n2)cc1 [SB-278539] | No | – | – | – | – | – | – | 13.4 | 15.5 | 16.2 | -1.14 | -1.41 | -0.91 | -1.09 | No | –
Cc1cc(C)cc(Oc2nccc(-c3c(-c4ccc(F)cc4)ncn3C3CCNCC3)n2)c1 [SB-284851-BT] | – | – | – | – | – | – | – | – | – | – | – | – | – | – | – | cell count rep 1 (HeLa cells): 26737; cell count rep 2 (HeLa cells): 41520; cell count rep 3 (HeLa cells): 48762; cell death (HeLa cells): No; z-scoreHeLa mean (HeLa cells): 1.19; z-scoreHeLa rep 1 (HeLa cells): 1.00; z-scoreHeLa rep 2 (HeLa cells): 1.26; z-scoreHeLa rep 3 (HeLa cells): 1.31
Cc1ccc(C)c(Oc2nccc(-c3c(-c4ccc(F)cc4)ncn3C3CCNCC3)n2)c1 [SB-284852-BT] | – | – | – | – | – | – | – | – | – | – | – | – | – | – | – | cell count rep 1 (HeLa cells): 26025; cell count rep 2 (HeLa cells): 26957; cell count rep 3 (HeLa cells): 22542; cell death (HeLa cells): No; z-scoreHeLa mean (HeLa cells): 0.10; z-scoreHeLa rep 1 (HeLa cells): -0.71; z-scoreHeLa rep 2 (HeLa cells): 0.29; z-scoreHeLa rep 3 (HeLa cells): 0.70
COc1ccccc1C1=C(Nc2ccc(O)c(Cl)c2)C(=O)NC1=O [SB-381904] | No | – | – | – | – | – | – | 16.9 | 18.3 | 18.4 | -0.26 | -0.30 | -0.07 | -0.42 | No | –
